Test results taken from ChEMBL document CHEMBL4033683, “Dual functional small molecule fluorescent probes for image-guided estrogen receptor-specific targeting coupled potent antiproliferative potency for breast cancer therapy” (Bioorg Med Chem, 2017).
Active and inactive are the calls of the source. No cut-off for these calls is given here.

Legend:
MCF7 = experiment: cells; conditions: Homo sapiens, MCF7, 72 h
[1] = target: T1, Estrogen receptor (Homo sapiens) (UniProt P03372); experiment: Binding affinity to ERalpha (unknown origin) at 1 uM by fluorescence assay
T1 sequence (whole entry): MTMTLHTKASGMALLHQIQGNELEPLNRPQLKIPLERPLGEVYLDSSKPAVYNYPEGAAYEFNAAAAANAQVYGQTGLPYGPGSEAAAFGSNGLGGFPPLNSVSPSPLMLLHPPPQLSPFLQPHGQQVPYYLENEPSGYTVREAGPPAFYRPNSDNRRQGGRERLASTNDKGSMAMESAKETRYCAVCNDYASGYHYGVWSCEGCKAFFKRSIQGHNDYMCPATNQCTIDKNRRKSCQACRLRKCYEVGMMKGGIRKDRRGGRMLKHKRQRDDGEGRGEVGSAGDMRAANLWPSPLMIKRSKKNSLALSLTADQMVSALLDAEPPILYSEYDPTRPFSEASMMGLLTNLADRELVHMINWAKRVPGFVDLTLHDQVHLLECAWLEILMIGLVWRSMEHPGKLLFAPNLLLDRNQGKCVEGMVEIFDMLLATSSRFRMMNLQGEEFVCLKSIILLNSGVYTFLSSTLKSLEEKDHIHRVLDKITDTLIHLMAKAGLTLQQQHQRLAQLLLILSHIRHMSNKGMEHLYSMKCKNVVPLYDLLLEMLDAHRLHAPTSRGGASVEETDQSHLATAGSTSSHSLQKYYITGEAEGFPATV

MDA-MB-231 = experiment: Antiproliferative activity against human MDA-MB-231 cells after 72 hrs by MTT assay; type: functional, cell-based; conditions: MDA-MB-231, 72 h
Homo sapiens [2] = species on record: Homo sapiens; experiment: Binding affinity to ER in human MCF7 cells at 1 uM up to 4 mins by real time imaging analysis; type: cell-based
[3] = target: T1, Estrogen receptor (Homo sapiens); experiment: Binding affinity to ERalpha (unknown origin) at 1 uM in presence of estradiol by fluorescence assay
[4] = Drug uptake in human MDA-MB-231 cells at 10 uM after 2 hrs by confocal laser scanning microscopic method; type: ADME, cell-based; conditions: mda-mb-231, 2 h
[5] = target: T1, Estrogen receptor (Homo sapiens); experiment: Agonist activity at ERalpha (unknown origin) expressed in HEK293T cells after 24 hrs by luciferase reporter gene assay; type: cell-based
MDA-MB-453 = experiment: Antiproliferative activity against human MDA-MB-453 cells after 72 hrs by MTT assay; type: functional, cell-based; conditions: MDA-MB-453, 72 h
[6] = Drug uptake in cytosol of human MCF7 cells at 1 uM up to 4 mins by real time fluorescence imaging analysis; type: ADME
Homo sapiens [7] = species on record: Homo sapiens; experiment: Binding affinity to ER in human MCF7 cells assessed as increase in fluorescence in cytosol at 1 uM up to 4 mins by real time imaging analysis; type: cell-based
[8] = Drug uptake in nucleus of human MCF7 cells at 1 uM up to 4 mins by real time fluorescence imaging analysis; type: ADME
Estrogen receptor beta [9] = target: T2, Estrogen receptor beta (Homo sapiens, UniProt Q92731); experiment: Binding affinity to ERbeta (unknown origin) at 1 uM in presence of estradiol by fluorescence assay
Homo sapiens [10] = species on record: Homo sapiens; experiment: Binding affinity to ER in human MCF7 cells assessed as increase in fluorescence in nucleus at 10 uM after 2 hrs by confocal laser scanning microscopic method; type: cell-based
Estrogen receptor beta [11] = target: T2, Estrogen receptor beta; experiment: Agonist activity at ERbeta (unknown origin) expressed in HEK293T cells after 24 hrs by luciferase reporter gene assay relative to estradiol; type: cell-based
Homo sapiens [12] = species on record: Homo sapiens; experiment: Binding affinity to ER in human MCF7 cells assessed as increase in fluorescence in nucleus at 1 uM up to 4 mins by real time imaging analysis; type: cell-based
Homo sapiens [13] = species on record: Homo sapiens; experiment: Binding affinity to ER in human MCF7 cells assessed as increase in fluorescence in cytosol at 10 uM after 2 hrs by confocal laser scanning microscopic method; type: cell-based
Estrogen receptor beta [14] = target: T2, Estrogen receptor beta; experiment: Binding affinity to ERbeta (unknown origin) at 1 uM by fluorescence assay
Homo sapiens [15] = species on record: Homo sapiens; experiment: Binding affinity to ER in human MCF7 cells at 10 uM preincubated for 2 hrs followed by estradiol addition measured after 10 mins by confocal laser scanning microscopic method; type: cell-based
Estrogen receptor = target: T3, Estrogen receptor (Homo sapiens, UniProt P03372); experiment: Antagonist activity at ERalpha (unknown origin) expressed in HEK293T cells assessed as inhibition of estradiol-induced response after 24 hrs by luciferase reporter gene assay; type: cell-based
T3 sequence (P03372 whole entry): T1 sequence (whole entry)

[16] = target: T1, Estrogen receptor (Homo sapiens); experiment: Antagonist activity at ERalpha (unknown origin) expressed in HEK293T cells assessed as inhibition of estradiol-induced response after 24 hrs by luciferase reporter gene assay relative to estradiol; type: cell-based
Estrogen receptor beta [17] = target: T2, Estrogen receptor beta; experiment: Agonist activity at ERbeta (unknown origin) expressed in HEK293T cells after 24 hrs by luciferase reporter gene assay; type: cell-based

T2 sequence (Q92731 whole entry): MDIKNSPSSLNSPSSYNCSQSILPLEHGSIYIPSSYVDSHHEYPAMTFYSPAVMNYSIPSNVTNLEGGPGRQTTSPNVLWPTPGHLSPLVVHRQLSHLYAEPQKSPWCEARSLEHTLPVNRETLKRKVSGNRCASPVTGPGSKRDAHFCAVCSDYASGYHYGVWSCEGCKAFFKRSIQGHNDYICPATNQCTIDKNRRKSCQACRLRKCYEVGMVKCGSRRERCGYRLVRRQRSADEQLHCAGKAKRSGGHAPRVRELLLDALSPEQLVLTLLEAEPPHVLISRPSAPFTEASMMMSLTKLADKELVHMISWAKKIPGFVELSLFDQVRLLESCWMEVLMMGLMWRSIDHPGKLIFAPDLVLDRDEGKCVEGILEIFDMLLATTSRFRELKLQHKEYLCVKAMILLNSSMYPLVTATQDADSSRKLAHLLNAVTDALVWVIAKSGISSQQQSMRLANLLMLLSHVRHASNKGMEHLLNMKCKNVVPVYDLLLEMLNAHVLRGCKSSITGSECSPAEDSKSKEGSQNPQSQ

## CCc1c(-c2ccc(O)cc2F)c(=O)oc2cc(O)ccc12
MCF7
  IC50: 16.1 µM
[1]
  Activity: Active
MDA-MB-231
  IC50: > 100 µM
Homo sapiens [2]
  Activity: Active
[3]
  Activity: inactive
[4]
  Drug uptake: Not Active
[5]
  Activity: inactive
MDA-MB-453
  IC50: 8.03 µM
[6]
  Drug uptake: Not Active
Homo sapiens [7]
  Activity: Active
[8]
  Drug uptake: Not Active
Estrogen receptor beta [9]
  Activity: inactive
Homo sapiens [10]
  Activity: Active
Estrogen receptor beta [11]
  Efficacy: -6.9%
Homo sapiens [12]
  Activity: Active
Homo sapiens [13]
  Activity: Active
Estrogen receptor beta [14]
  Activity: Active
Homo sapiens [15]
  Activity: inactive
Estrogen receptor
  IC50: 12 nM
[16]
  Efficacy: 26.4%

## CCC(=C(c1ccc(O)cc1)c1ccc(OCCN(C)C)cc1)c1ccccc1
MDA-MB-231
  IC50: 20.1 µM
MDA-MB-453
  IC50: 10.4 µM

## Cc1cc(O)ccc1-c1c(C)c2ccc(O)cc2oc1=O
MCF7
  IC50: > 100 µM
MDA-MB-231
  IC50: > 100 µM
[5]
  Activity: inactive
MDA-MB-453
  IC50: 55.3 µM
Estrogen receptor beta [11]
  Efficacy: 72.1%
Estrogen receptor beta [17]
  EC50: 11 nM
Estrogen receptor
  IC50: 112 nM
[16]
  Efficacy: 65.3%

## CCc1c(-c2ccc(O)cc2Cl)c(=O)oc2cc(O)ccc12
MCF7
  IC50: 49.3 µM
[1]
  Activity: Active
MDA-MB-231
  IC50: > 100 µM
[3]
  Activity: inactive
[4]
  Drug uptake: Not Active
[5]
  Activity: inactive
MDA-MB-453
  IC50: 37.2 µM
Estrogen receptor beta [9]
  Activity: inactive
Homo sapiens [10]
  Activity: Active
Estrogen receptor beta [11]
  Efficacy: 68.2%
Homo sapiens [13]
  Activity: Active
Estrogen receptor beta [14]
  Activity: Active
Homo sapiens [15]
  Activity: inactive
Estrogen receptor beta [17]
  EC50: 343 nM
[16]
  Efficacy: 120%

## Cc1c(-c2ccc(O)cc2Cl)c(=O)oc2cc(O)ccc12
MCF7
  IC50: 21.6 µM
MDA-MB-231
  IC50: 46.1 µM
[5]
  Activity: inactive
MDA-MB-453
  IC50: 26.7 µM
Estrogen receptor beta [11]
  Efficacy: 12.9%
Estrogen receptor beta [17]
  EC50: 894 nM
Estrogen receptor
  IC50: 1240 nM
[16]
  Efficacy: 84.6%

## O=c1oc2cc(O)ccc2cc1-c1ccc(O)cc1
MCF7
  IC50: > 100 µM
MDA-MB-231
  IC50: > 100 µM
[5]
  Activity: inactive
MDA-MB-453
  IC50: > 100 µM
Estrogen receptor beta [11]
  Efficacy: 138%
Estrogen receptor beta [17]
  EC50: 542 nM
[16]
  Efficacy: 101%

## C[C@]12CC[C@@H]3c4ccc(O)cc4CC[C@H]3[C@@H]1CC[C@@]2(O)C#Cc1ccc(CNC(=O)c2ccc(-c3c4ccc(=O)cc-4oc4cc(O)ccc34)c(C(=O)O)c2)cc1
Homo sapiens [2]
  Activity: inactive
[4]
  Drug uptake: Active

## O=c1oc2cc(O)ccc2cc1-c1ccc(O)c(F)c1
MCF7
  IC50: > 100 µM
MDA-MB-231
  IC50: > 100 µM
[5]
  Activity: inactive
MDA-MB-453
  IC50: > 100 µM
Estrogen receptor beta [11]
  Efficacy: 66.7%
Estrogen receptor beta [17]
  EC50: 207 nM
[16]
  Efficacy: 124%

## O=c1oc2cc(O)ccc2c(-c2ccc(O)c(F)c2)c1-c1ccc(O)c(F)c1
MCF7
  IC50: 40.1 µM
MDA-MB-231
  IC50: > 100 µM
[5]
  Activity: inactive
MDA-MB-453
  IC50: 31.7 µM
Estrogen receptor beta [11]
  Efficacy: -11.2%
Estrogen receptor
  IC50: 219 nM
[16]
  Efficacy: 57.8%

## CCc1c(-c2ccc(O)c(F)c2)c(=O)oc2cc(O)ccc12
MCF7
  IC50: 50 µM
MDA-MB-231
  IC50: 48.6 µM
[5]
  Activity: inactive
MDA-MB-453
  IC50: 39.8 µM

## O=c1oc2cc(O)ccc2c(-c2ccc(O)cc2)c1-c1ccc(O)cc1
MCF7
  IC50: 49 µM
MDA-MB-231
  IC50: 59.8 µM
MDA-MB-453
  IC50: 29.1 µM
Estrogen receptor beta [11]
  Efficacy: 33.4%
Estrogen receptor beta [17]
  EC50: 12 nM
Estrogen receptor
  IC50: 222 nM
[16]
  Efficacy: 15.2%
